{"source": "patent US8618082B2", "about": "“Lupeol anti-tumor agent and uses thereof” (Wisconsin Alumni Research Foundation, priority 2004, dated 2013)", "key": {"NFκB/p65": {"tested_on": "NFκB/p65", "assay": "TPA-induced NFκB/p65 activation and nuclear translocation (western blot)", "assay_type": "in vivo, mouse", "details": "topical Lupeol prior to TPA", "experimental": "FIG. 7. Inhibitory effect of Lupeol on TPA-induced NF-κB activation and its subsequent translocation to nucleus in CD-1 mice. (a) At different times after treatment, the animals were sacrificed, nuclear lysates were prepared, and protein expression was determined. The values above each lane indicate relative density of the band.\nThe animals were shaved on the dorsal side of the skin, divided into four groups and treated topically on the shaved area with either 0.4 ml vehicle (acetone), or TPA (3.2 nmol/0.4 ml acetone/animal, v/v), or Lupeol (1 or 2 mg/0.2 ml acetone/animal, w/v) followed 30 min later with TPA (3.2 nmol/0.2 ml acetone/animal). Animals were sacrificed at different times point i.e. 6, 12, 24 and 48 h post TPA treatment. […]\nEpidermis from the whole skin was separated as described earlier (Katiyar et al., 1999) and was homogenized in ice-cold lysis buffer [50 mM Tris-HCl, 150 mM NaCl, 1 mM EGTA, 1 mM EDTA, 20 mM NaF, 100 mM Na3VO4, 0.5% NP-40, 1% Triton X-100, 1 mM PMSF (pH 7.4)] with freshly added protease inhibitor cocktail, Protease Inhibitor Cocktail Set III (Calbiochem, La Jolla, Calif., USA). […] The protein content in the lysates was measured by DC BioRad assay (BioRad Laboratories, Hercules, Calif.) as per the manufacturer's protocol. […]"}, "[1]": {"tested_on": "androgen-sensitive prostatic cancer cells (LNCaP)", "assay": "Viability of LNCaP cells, MTT assay", "assay_type": "cell-based, human", "details": "for cell death of LNCaP cells: 48 hours", "experimental": "FIG. 10 depicts effect of Lupeol on viability of androgen-sensitive prostatic cancer cells (LNCaP). Cells were treated with specified concentrations of Lupeol for 48 h, and cell viability was determined by MTT assay. The values are represented as the percent viable cells where vehicle-treated cells were regarded as 100% viable. Data represents mean value of percent viable cells±S.E of three independent experiments."}, "[2]": {"tested_on": "pro-caspases-8 and -9 in LNCaP cells", "assay": "Pro-caspases-8 and -9 expression in LNCaP cells (western blot)", "assay_type": "cell-based, human", "experimental": "FIG. 13 depicts effect of Lupeol treatment on protein expression of pro-caspases-8 and -9 in LNCaP cells. Cells were treated with only specified concentrations of Lupeol for 48 h, harvested and total cell lysates were prepared. Expression of pro-caspases-8 and -9 were determined by western blot analysis. Equal loading was confirmed by stripping immunoblots and reprobing them for β-actin. The immunoblots shown here are representative of three independent experiments with similar results."}, "CD-1 mouse skin": {"tested_on": "CD-1 mouse skin", "assay": "TPA-induced cutaneous edema, skin punch weight", "assay_type": "in vivo", "details": "for protection against TPA-induced skin edema: dose not stated, p<0.01", "experimental": "Studies from the inventors' laboratory and by other have shown that TPA application to mouse skin results in cutaneous edema (Katiyar et at, 1996; Liang et at, 2002). In the present study, the inventors evaluated the protective effects of topical application of Lupeol in TPA-mediated cutaneous edema in CD-1 mouse. The inventors tested four doses 0.25, 0.5, 1 and 2 mg of Lupeol per animal in the inventors' preliminary studies. […] The CD-1 mice were topically treated with Lupeol (1 and 2 mg/mouse) and 30 min later were topically treated with TPA (3.2 nmole/mouse). […] At least four determinations were made at different dorsal skin sites per mouse in each group. The data represents the mean±SE of eight mice (*p<0.01 vs TPA).\nThe animals were shaved on the dorsal side of the skin, divided into four groups and treated topically on the shaved area with either 0.4 ml vehicle (acetone), or TPA (3.2 nmol/0.4 ml acetone/animal, v/v), or Lupeol (1 or 2 mg/0.2 ml acetone/animal, w/v) followed 30 min later with TPA (3.2 nmol/0.2 ml acetone/animal). Animals were sacrificed at different times point i.e. 6, 12, 24 and 48 h post TPA treatment. The epidermis was separated from the whole skin and homogenized in 0.1 M Tris-HCl buffer (pH 7.2) using a Polytron tissue homogenizer (Brinkmann Instruments, Westbury, N.Y., USA) at 100,000×g supernatant, and microsomal fractions were prepared as described earlier (Katiyar and Mukhtar, 1997). The sample of 6 h treatment group was used to assess the ODC activity as this time point has previously been shown for optimal induction of the enzyme (Katiyar er al., 1996).\nTo assess the inhibitory effect of pre-application of Lupeol on TPA-induced edema, 1 cm-diameter punches of skin from vehicle-, Lupeol-, TPA- or Lupeol- and TPA-treated mice were removed, made free of fat pads, and weighed immediately. After drying for 24 h at 50° C., the skin punches were reweighed, and the loss of water content was determined. The difference in the amount of water gain between the control (vehicle treated) and TPA treated represented the extent of edema induced by TPA, whereas that between the control vehicle and Lupeol plus TPA represented the inhibitory effect of Lupeol. For the hyperplasia study, skin was removed, fixed in 10% formalin, and embedded in paraffin. Vertical sections (5 μm) were cut, mounted on a glass slide, and stained with hematoxylin and eosin."}, "[3]": {"details": "Lupeol alone (2 mg), topical, no TPA, mean±SE of eight mice"}, "[4]": {"details": "TPA + Lupeol (1 mg), Lupeol topical 30 min before TPA"}, "[5]": {"details": "TPA + Lupeol (2 mg), Lupeol topical 30 min before TPA"}}, "note": "Marks after values point to notes of the source that are not given here.", "data": [{"smiles": "C=C(C)[C@@H]1CC[C@]2(C)CC[C@]3(C)[C@H](CC[C@@H]4[C@@]5(C)CC[C@H](O)C(C)(C)[C@@H]5CC[C@]43C)[C@@H]12", "note": "[Lupeol, Lup-20(29)-en-3β-ol]", "values": [{"measurement": "TPA-induced NFκB/p65 activation and nuclear translocation", "setting": "NFκB/p65", "value": "inhibited"}, {"measurement": "cell death of LNCaP cells", "setting": "[1]; 40-60 μM Lupeol", "value": "75-90%"}, {"measurement": "cell viability of LNCaP cells", "setting": "[1]; Lupeol 5-30 μM, 48 and 72 h, time and dose dependent", "value": "significant inhibition of cell viability"}, {"measurement": "cell death of LNCaP cells", "setting": "[1]; Lupeol up to 30 μM", "value": 70, "unit": "%"}, {"measurement": "activation of Caspase-8 and 9 proteins", "setting": "[2]", "value": "induces the activation"}, {"measurement": "expression of inactive (pro-) caspases-8 and -9", "setting": "[2]; 48 h", "value": "causes disappearance of inactive caspases"}, {"measurement": "protection against TPA-induced skin edema", "setting": "CD-1 mouse skin; 24 h post-treatment", "value": 48, "unit": "%"}, {"measurement": "protection against TPA-induced skin edema", "setting": "CD-1 mouse skin; 48 h post-treatment", "value": 43, "unit": "%"}, {"measurement": "Skin punch weight 24 hrs", "setting": "CD-1 mouse skin; [3]", "value": "13.5 ± 1.5", "unit": "mg/cm2"}, {"measurement": "Skin punch weight 48 hrs", "setting": "CD-1 mouse skin; [3]", "value": "15.5 ± 1.5", "unit": "mg/cm2"}, {"measurement": "% protection 24 hrs", "setting": "CD-1 mouse skin; TPA + Lupeol (1 mg)", "value": 53, "unit": "%"}, {"measurement": "% protection 48 hrs", "setting": "CD-1 mouse skin; TPA + Lupeol (1 mg)", "value": 52, "unit": "%"}, {"measurement": "Skin punch weight 24 hrs", "setting": "CD-1 mouse skin; [4]", "value": "18.5 ± 1.0* mg/cm2"}, {"measurement": "Skin punch weight 48 hrs", "setting": "CD-1 mouse skin; [4]", "value": "20.0 ± 1.0* mg/cm2"}, {"measurement": "% protection 24 hrs", "setting": "CD-1 mouse skin; TPA + Lupeol (2 mg)", "value": 79, "unit": "%"}, {"measurement": "% protection 48 hrs", "setting": "CD-1 mouse skin; TPA + Lupeol (2 mg)", "value": 85, "unit": "%"}, {"measurement": "Skin punch weight 24 hrs", "setting": "CD-1 mouse skin; [5]", "value": "16.0 ± 1.5* mg/cm2"}, {"measurement": "Skin punch weight 48 hrs", "setting": "CD-1 mouse skin; [5]", "value": "16.5 ± 0.75* mg/cm2"}, {"measurement": "skin edema after Lupeol alone", "setting": "CD-1 mouse skin; topical Lupeol alone, 24 and 48 h post treatment", "value": "did not result in an increase in skin edema"}]}]}
